{
  "source": "patent US11246946B2",
  "about": "“Methods of treatment using ultrasmall nanoparticles to induce cell death of nutrient-deprived cancer cells via ferroptosis” (priority 2015, dated 2022)",
  "key": {"[1]": {"tested_on": "glutathione", "test": "Glutathione quantification", "assay_type": "cell-based", "conditions": "MCF10A, full or amino acid-free media, 24 hours; 15 μM particles or 400 μM BSO", "protocol": "For glutathione measurements, HT-1080 cells were plated on 6 cm cell culture dishes, incubated with 15 μM α-MSH-tagged nanoparticles in amino acid-free DMEM+10% dialyzed FBS and harvested approximately 2 hours before the expected time of death. As controls, cells were treated with a mix of 3 parts full or amino acid-free DMEM and 1 part H2O, or 100 μM BSO in full media. Cells were washed 3× with cold PBS and harvested through cell scraping in 50 μL cold lysis buffer. Protein concentrations were measured using the BCA assay and sample volumes were adjusted so that each had the same final protein concentration. Total glutathione was measured using the Glutathione Assay Kit (Cayman Chemicals, 703002) and reduced glutathione was measured using the QuantiChrom™ Glutathione Assay Kit (BioAssay Systems, DIGT-250) according to manufacturer's instructions."}, "[2]": {"tested_on": "MCF10A human mammary epithelial cells", "test": "Cell death (Sytox green+) by time-lapse microscopy, MCF10A", "assay_type": "cell-based", "conditions": "for effect on nanoparticle-induced cell death / effect on α-MSH-PEG-C′ dot-induced cell death: AA-st plus 15 μM α-MSH-PEG-C′ dots, 40 hours; for effect on nanoparticle-induced cell death: 50 μM BHA, 200 μM ascorbic acid, 100 μM Trolox, 10 mM NAC, 5 mM GSH; for effect on α-MSH-PEG-C′ dot-induced cell death: inhibitor 1 μM", "protocol": "(§1) MEF and HT1080 cells were cultured in Dulbecco's modified Eagle's medium (DMEM) (MSKCC Media Preparation Facility) supplemented with 10% fetal bovine serum (FBS, Sigma, St. Louis, Mo.) with penicillin/streptomycin (Corning, Corning, N.Y.). MCF10A cells were cultured in DMEM/F12 (Gibco, Grand Island, N.Y.) supplemented with 5% horse serum (Atlanta Biologicals, Flowery Branch, Ga.), 20 ng/ml EGF (Peprotech, Rocky Hill, N.J.), 10 μg/ml insulin (Sigma), 0.5 μg/ml hydrocortisone (Sigma), and 100 ng/ml cholera toxin (Sigma) with penicillin/streptomycin. M21, BxPC3, H1650, and 786-O cells were cultured in RPMI-1640 (Gibco) supplemented with 10% FBS with penicillin/streptomycin. SKOV3 cells were cultured in McCoy's 5a modified medium (Gibco) supplemented with 10% FBS with penicillin/streptomycin. Amino acid-free medium was prepared by dialyzing heat-inactivated FBS (for MEF, HT1080, M21, BxPC3, H1650, and SKOV3 cells) or horse serum (for MCF10A cells) for 4 h, followed by overnight incubation at 4° C. in phosphate-buffered saline (PBS) in MWCO 3500 dialysis tubing (21-152-9; Fisherbrand, Pittsburgh, Pa.) and addition to base media prepared without amino acids. PRetro-Lamp1-GFP was introduced into M21 cells by retroviral transduction, and stable cell lines were selected with puromycin (2 μg ml^−1).\n(§2) NIS Elements software (Nikon, Melville, N.Y.) was used."}, "[3]": {"tested_on": "HT-1080 tumors", "test": "HT-1080 flank xenograft, multi-dose i.v. particle treatment", "assay_type": "in vivo, mice", "protocol": "All animal experiments were performed in accordance with protocols approved by the Institutional Animal Care and Use Committee of Memorial Sloan-Kettering Cancer Center and followed NIH guidelines for animal welfare. Human melanoma (M21) xenografts were generated on the shaved flanks of immunodeficient male SCID/Beige (C.B-17/IcrHsd-Prkdc^scidLyst^bg-J) mice (6-8 weeks old; Harlan Laboratories, South Easton, Mass.). Human sarcoma HT1080 and 786-O flank xenografts[…]) were additionally generated using the same model for intravenous particle injection. Average initial tumor volumes of 45-75 mm^3 were used for all experiments.\nFive million M21 cells, cultured in serum-supplemented media, were subcutaneously implanted into the right flank of mice using a 23-gauge trocar needle to establish melanoma xenografts 2 days after particle exposure (n=3) or without exposure (n=3). […] Tumor sizes were measured using calipers over the treatment interval. […] Two perpendicular diameters (d1≤d2) of the tumor used to calculate the tumor volume (V; 4/3·π·d1^2·d2/8) were measured with calipers daily following the injection of cells.\nVolume-time profiles were compared between the two treatment groups using robust standard errors calculated using by a generalized estimating equations approach. […]"}, "[4]": {"tested_on": "lipid ROS", "test": "C11-BODIPY imaging of lipid ROS before cell death", "assay_type": "cell-based", "conditions": "erastin 5 μM plus liproxstatin-1, 6 hours after control cells underwent cell death", "description": "as §2"}, "[5]": {"tested_on": "mouse embryo fibroblasts (MEF)", "test": "Cell death (Sytox green+) by time-lapse microscopy, MEF", "assay_type": "cell-based", "conditions": "wt MEFs, 100 ng/ml TNFα, 1 μg/ml CHX and 20 μM zVAD, plus 30 μM Nec-1", "protocol": "as §1, §2"}, "[6]": {"tested_on": "ferritin heavy chain (FTH1)", "test": "Ferritin heavy chain western blot", "assay_type": "cell-based", "conditions": "amino acid-starved cells, 24 hours; 15 μM particles, FAC 400 μM, DFO 100 μM"}, "[7]": {"tested_on": "amino acid-starved cells", "conditions": "amino acid-starvation conditions, FAC 400 μM"}},
  "data": [
    {"molecule": "CCCCS(=N)(=O)CCC(N)C(=O)O", "note": "(stereo not shown) [BSO, Buthionine sulphoximine]", "values": [
      {"measurement": "reduced glutathione (GSH) levels", "setting": "[1]", "result": "reduce glutathione levels"}
    ]},
    {"molecule": "CC(=O)N[C@@H](CS)C(=O)O", "note": "[N-acetylcysteine]", "values": [
      {"measurement": "effect on nanoparticle-induced cell death", "setting": "[2]", "result": "inhibited"}
    ]},
    {"molecule": "O=C1O[C@H]([C@@H](O)CO)C(O)=C1O", "note": "[ascorbic acid, Ascorbic acid]", "values": [
      {"measurement": "effect on nanoparticle-induced cell death", "setting": "[2]", "result": "inhibited"}
    ]},
    {"molecule": "COc1ccc(O)c(C(C)(C)C)c1", "note": "[butylated hydroxyanisole, Butylated hydroxyanisole]", "values": [
      {"measurement": "effect on nanoparticle-induced cell death", "setting": "[2]", "result": "inhibited"}
    ]},
    {"molecule": "C/C=C/[C@H]1O[C@@](O)([C@@H](C)[C@H](O)[C@H](C)[C@H]2OC(=O)/C(OC)=C/C(C)=C/[C@@H](C)[C@@H](O)[C@@H](CC)[C@@H](O)[C@H](C)C/C(C)=C/C=C/[C@@H]2OC)C[C@@H](O[C@H]2C[C@@H](O)[C@H](OC(N)=O)[C@@H](C)O2)[C@@H]1C", "note": "[concanamycin A, Concanamycin A]", "values": [
      {"measurement": "cell death morphology", "setting": "[2]; amino acid-free media, 100 nM ConA", "result": "undergo cell death with morphologic features of apoptosis"}
    ]},
    {"molecule": "C[C@@H]1C[C@@H]([C@H](O)CC2CC(=O)NC(=O)C2)C(=O)[C@@H](C)C1", "note": "[cycloheximide, Cycloheximide]", "values": [
      {"measurement": "temporal pattern of apoptotic cell death", "setting": "[2]; 50 μg/ml cycloheximide", "result": "asynchronous pattern of cell death"}
    ]},
    {"molecule": "CCOC(=O)c1ccc(NC2CCCCC2)c(N)c1", "note": "[ferrostatin-1, Ferrostatin-1]", "values": [
      {"measurement": "effect on α-MSH-PEG-C′ dot-induced cell death", "setting": "[2]", "result": "rescued cell viability"}
    ]},
    {"molecule": "N[C@@H](CCC(=O)N[C@@H](CS)C(=O)NCC(=O)O)C(=O)O", "note": "[glutathione, Glutathione]", "values": [
      {"measurement": "effect on nanoparticle-induced cell death", "setting": "[2]", "result": "inhibited"}
    ]},
    {"molecule": "Clc1cccc(CN=C2Nc3ccccc3NC23CCNCC3)c1", "note": "[liproxstatin-1, Liproxstatin-1]", "values": [
      {"measurement": "average daily tumor growth", "setting": "[3]; HT1080, particle-exposed tumors (three 60 μM i.v. doses) treated with daily i.p. liproxstatin-1 125 mg/kg, 10 days, 95% CI: 10.1-18.9", "result": 14.6, "unit": "mm^3"},
      {"measurement": "difference in average daily tumor growth, particles plus liproxstatin-1 vs particles alone", "setting": "[3]; HT1080, CI: 13.1 to 17.6, p<0.001", "result": 15.3, "unit": "mm^3"},
      {"measurement": "effect on α-MSH-PEG-C′ dot-induced cell death", "setting": "[2]", "result": "rescued cell viability"},
      {"measurement": "effect on C11-BODIPY staining induced by erastin", "setting": "[4]", "result": "inhibits C11-BODIPY staining induced by erastin treatment"}
    ]},
    {"molecule": "CN1C(=O)C(Cc2c[nH]c3ccccc23)NC1=S", "note": "(stereo not shown) [necrostatin-1, Necrostatin-1]", "values": [
      {"measurement": "cell death on necroptosis induction", "setting": "[5]", "result": "do not undergo cell death"}
    ]},
    {"molecule": "Cc1c(C)c2c(c(C)c1O)CCC(C)(C(=O)O)O2", "note": "(stereo not shown) [trolox, Trolox]", "values": [
      {"measurement": "effect on nanoparticle-induced cell death", "setting": "[2]", "result": "inhibited"}
    ]},
    {"molecule": "Ferric ammonium citrate", "values": [
      {"measurement": "ferritin heavy chain (FTH1) expression", "setting": "[6]", "result": "increased"},
      {"measurement": "percent cell death (Sytox green+)", "setting": "[7]", "result": "sufficient to mimic α-MSH-PEG-C′ dot-induced death"}
    ]}
  ]
}
